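Grown in 96-well plates, cells were treated for 48 hours with each compound at five concentrations. Insufficient inhibition: endpoint recorded as highest concentration tested. The concentration for 50% growth inhibition is given as GI50. TGI: concentration producing complete growth inhibition.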

This passage reports GI50 and TGI results from PubChem BioAssay (NCI).

Test systems include 786-0 renal; BT-549 breast; DU-145 prostate; HOP-62 NSCLC; HOP-92 NSCLC; HT29 colon; MDA-MB-231 breast; MDA-MB-435; OVCAR-5 ovarian; UO-31 renal.
Holding throughout (assay): inhibition of tumour cell growth, NCI panel, 48 h

For the molecule `COC(=O)c1nc(-c2ccccc2)oc1S(=O)(=O)n1nc(C)cc1N`, the GI50 was 12.5 µM in the assay on 786-0 renal; 10.8 µM with BT-549 breast; 15.9 µM in the assay on DU-145 prostate; 27.9 µM in the assay on HOP-62 NSCLC; 1.73 µM with HOP-92 NSCLC; 16.4 µM with HT29 colon. For the same molecule, the GI50 with MDA-MB-231 breast was 9.03 µM; with MDA-MB-435, 11.4 µM; in the assay on OVCAR-5 ovarian, 13.8 µM; in the assay with UO-31 renal, 8.59 µM. Further, the TGI in the assay on 786-0 renal was 25.6 µM; with BT-549 breast it was 23.2 µM; in the assay on DU-145 prostate it was 29.3 µM; with HOP-62 NSCLC, 84.2 µM; with HOP-92 NSCLC, 3.89 µM; in the assay with HT29 colon it was 36.5 µM. For the same molecule, the TGI was 21.8 µM with MDA-MB-231 breast, 25.3 µM in the assay with MDA-MB-435, 28.8 µM in the assay with OVCAR-5 ovarian and 21.1 µM in the assay on UO-31 renal.

Take `CC(C)(C)c1ccc(C(=O)Nc2sc3c(c2C(N)=O)CCC(=O)C3)cc1`: the GI50 in the assay with 786-0 renal was 1.86 µM; in the assay on BT-549 breast, 0.356 µM; in the assay on DU-145 prostate, 2.72 µM; in the assay with HOP-62 NSCLC it was 2.38 µM; with HOP-92 NSCLC, 1.13 µM; in the assay on HT29 colon, 0.489 µM. For the same molecule, the GI50 in the assay on MDA-MB-231 breast is 0.999 µM; in the assay on MDA-MB-435, 1.67 µM; in the assay on OVCAR-5 ovarian it was 1.49 µM; with UO-31 renal, 0.425 µM. The TGI is 5.07 µM in the assay on 786-0 renal; 1.56 µM in the assay on BT-549 breast; 11.1 µM in the assay on DU-145 prostate; 6.62 µM in the assay on HOP-62 NSCLC; 2.96 µM in the assay on HOP-92 NSCLC; 3.5 µM with HT29 colon. Moreover, the TGI turned out to be 2.63 µM in the assay on MDA-MB-231 breast, 3.7 µM in the assay with MDA-MB-435, 3.82 µM with OVCAR-5 ovarian and 1.46 µM with UO-31 renal.

For the molecule `CCN1C(=O)N(CC)C2C1NN=c1s/c(=C\c3ccccc3Br)c(=O)n12` (stereo not given), the GI50 in the assay on 786-0 renal was 0.0525 µM; in the assay on BT-549 breast, 0.0327 µM; in the assay with DU-145 prostate, 0.0362 µM; in the assay with HOP-62 NSCLC, 0.0485 µM; with HOP-92 NSCLC it was 0.37 µM; in the assay on HT29 colon, 0.0348 µM. The GI50 in the assay on MDA-MB-231 breast was 0.0347 µM; in the assay on MDA-MB-435, less than 0.0137 µM; with OVCAR-5 ovarian, 0.061 µM; with UO-31 renal, 0.205 µM. The TGI in the assay on 786-0 renal is 37 µM; in the assay on BT-549 breast it was 17.1 µM; in the assay on DU-145 prostate, greater than 38.7 µM; with HOP-62 NSCLC, 20.4 µM; in the assay on HOP-92 NSCLC it was 44.7 µM; in the assay on HT29 colon it was 14 µM. Also, the TGI was 11.4 µM with MDA-MB-231 breast, 0.0416 µM with MDA-MB-435, greater than 48.7 µM with OVCAR-5 ovarian and 34.4 µM in the assay on UO-31 renal.

For `CCN(CCO)CC(C)Nc1ccc([N+](=O)[O-])c2sc3ccccc3c(=O)c12` (stereo not given), the GI50 is 1.37 µM in the assay with 786-0 renal; 2.1 µM with BT-549 breast; 1.24 µM with DU-145 prostate; 1.27 µM in the assay on HOP-62 NSCLC; 1.6 µM with HOP-92 NSCLC; 1.42 µM with HT29 colon. In addition, the GI50 was 2.6 µM with MDA-MB-231 breast, 1.54 µM in the assay on MDA-MB-435, 3.68 µM with OVCAR-5 ovarian and 0.278 µM in the assay on UO-31 renal. Besides, the TGI amounted to 3.97 µM in the assay with 786-0 renal; 13.1 µM in the assay on BT-549 breast; 4.9 µM in the assay on DU-145 prostate; 5.55 µM in the assay on HOP-62 NSCLC; 7.7 µM in the assay on HOP-92 NSCLC; 3.62 µM with HT29 colon. Besides, the TGI with MDA-MB-231 breast turned out to be 12.3 µM; in the assay with MDA-MB-435 it was 3.8 µM; in the assay with OVCAR-5 ovarian, 18.5 µM; in the assay on UO-31 renal, 1.65 µM.

On to `CC1(C)CCC[C@]2(C)[C@@H](C=O)C(C=O)=CC[C@@H]12`, for which the TGI in the assay with 786-0 renal was greater than 100 µM; with BT-549 breast, 74.2 µM; with DU-145 prostate it was 50.3 µM; with HOP-62 NSCLC, greater than 100 µM; in the assay with HOP-92 NSCLC it was 53 µM; in the assay on HT29 colon it was 30 µM. In addition, the TGI is 23.1 µM with MDA-MB-231 breast, greater than 100 µM in the assay on MDA-MB-435, 33.2 µM in the assay with OVCAR-5 ovarian and 29.9 µM in the assay on UO-31 renal.

Turning to `COc1ccc(OC)c(C2SCC(=O)N2NC(=O)C(O)c2ccccc2)c1` (stereo not given), the GI50 in the assay on 786-0 renal, with BT-549 breast, in the assay with DU-145 prostate, in the assay with HOP-62 NSCLC, with HOP-92 NSCLC and with HT29 colon was greater than 100 µM throughout. Besides, the GI50 with MDA-MB-231 breast, with MDA-MB-435, with OVCAR-5 ovarian and with UO-31 renal was greater than 100 µM throughout. Also, the TGI in the assay on 786-0 renal, with BT-549 breast, with DU-145 prostate, in the assay with HOP-62 NSCLC, with HOP-92 NSCLC and in the assay on HT29 colon was greater than 100 µM in each case. Besides, the TGI in the assay with MDA-MB-231 breast, in the assay on MDA-MB-435, with OVCAR-5 ovarian and with UO-31 renal was greater than 100 µM throughout.

In the case of `COc1ccc(OC)c(Cn2cc3c(c2)-c2oncc2CC3)c1`, the GI50 in the assay with 786-0 renal was 5.49 µM; in the assay with BT-549 breast, 4.05 µM; in the assay on DU-145 prostate, 3.74 µM; in the assay with HOP-62 NSCLC it was 4.08 µM; in the assay on HOP-92 NSCLC, 3.25 µM; with HT29 colon, 2.35 µM. Further, the GI50 was 5.02 µM in the assay on MDA-MB-231 breast, 0.316 µM in the assay on MDA-MB-435, 6.08 µM with OVCAR-5 ovarian and 4.13 µM with UO-31 renal. The TGI with 786-0 renal is greater than 63.6 µM; in the assay with BT-549 breast, greater than 100 µM; in the assay on DU-145 prostate it was greater than 64.3 µM; with HOP-62 NSCLC it was greater than 100 µM; in the assay on HOP-92 NSCLC, 57.8 µM; in the assay with HT29 colon, 10.9 µM. The TGI with MDA-MB-231 breast was greater than 72 µM; with MDA-MB-435, 1.42 µM; with OVCAR-5 ovarian, greater than 100 µM; in the assay with UO-31 renal, 38.8 µM.

As to `COc1ccc(-c2cc(=O)c3c(OC)c(OC)c(OC)c(OC)c3o2)cc1`, the TGI in the assay on 786-0 renal, in the assay on BT-549 breast, in the assay with DU-145 prostate, in the assay with HOP-62 NSCLC, in the assay with HOP-92 NSCLC and with HT29 colon was greater than 100 µM in each case. In addition, the TGI with MDA-MB-231 breast, with MDA-MB-435, with OVCAR-5 ovarian and in the assay with UO-31 renal was greater than 100 µM each time.
